Each compound was assayed against Btk (Homo sapiens, UniProt Q06187) (assay: Btk in vitro inhibitory activity, acellular kinase assay (TR-FRET)).
Type: biochemical
Experimental: Btk kinase activity is determined using a time-resolved fluorescence resonance energy transfer (TR-FRET) methodology. Measurements are performed in a reaction volume of 50 μL using 96-well assay plates. Kinase enzyme, inhibitor, ATP (at the Km for the kinase), and 1 μM peptide substrate (Biotin-AVLESEEELYSSARQ-NH2) are incubated in a reaction buffer composed of 20 mM Tris, 50 mM NaCl, MgCl2 (5-25 mM depending on the kinase), MnCl2 (0-10 mM), 1 mM DTT, 0.1 mM EDTA, 0.01% bovine serum albumin, 0.005% Tween-20, and 10% DMSO at pH 7.4 for one hour. The reaction is quenched by the addition of 1.2 equivalents of EDTA (relative to divalent cation) in 25 μL of 1× Lance buffer (Perkin-Elmer). Streptavidin-APC (Perkin-Elmer) and Eu-labeled p-Tyr100 antibody (Perkin-Elmer) in 1× Lance buffer are added in a 25 μL volume to give final concentrations of 100 nM and 2.5 nM, respectively, and the mixture is allowed to incubate for one hour. The TR-FRET signal is measured on a multimode plate reader with an excitation wavelength (λEx) of 330 nm and detection wavelengths (λEm) of 615 and 665 nm. Activity is determined by the ratio of the fluorescence at 665 nm to that at 615 nm. For each compound, enzyme activity is measured at various concentrations of compound. Negative control reactions are performed in the absence of inhibitor in replicates of six, and two no-enzyme controls were used to determine baseline fluorescence levels. Inhibition constants, Ki(app), are obtained using the program BatchKi (Kuzmic et al. (2000), Anal. Biochem. 286:45-50). IC50s are obtained according to the equation: IC50={Ki(app)/(1+[ATP]/Km^ATP)}+[E]total/2;
For all kinases, [ATP]=Km^ATP, [Btk]total=0.5 nM and [Lck]total=6 nM.

Btk, sequence (Q06187 whole entry): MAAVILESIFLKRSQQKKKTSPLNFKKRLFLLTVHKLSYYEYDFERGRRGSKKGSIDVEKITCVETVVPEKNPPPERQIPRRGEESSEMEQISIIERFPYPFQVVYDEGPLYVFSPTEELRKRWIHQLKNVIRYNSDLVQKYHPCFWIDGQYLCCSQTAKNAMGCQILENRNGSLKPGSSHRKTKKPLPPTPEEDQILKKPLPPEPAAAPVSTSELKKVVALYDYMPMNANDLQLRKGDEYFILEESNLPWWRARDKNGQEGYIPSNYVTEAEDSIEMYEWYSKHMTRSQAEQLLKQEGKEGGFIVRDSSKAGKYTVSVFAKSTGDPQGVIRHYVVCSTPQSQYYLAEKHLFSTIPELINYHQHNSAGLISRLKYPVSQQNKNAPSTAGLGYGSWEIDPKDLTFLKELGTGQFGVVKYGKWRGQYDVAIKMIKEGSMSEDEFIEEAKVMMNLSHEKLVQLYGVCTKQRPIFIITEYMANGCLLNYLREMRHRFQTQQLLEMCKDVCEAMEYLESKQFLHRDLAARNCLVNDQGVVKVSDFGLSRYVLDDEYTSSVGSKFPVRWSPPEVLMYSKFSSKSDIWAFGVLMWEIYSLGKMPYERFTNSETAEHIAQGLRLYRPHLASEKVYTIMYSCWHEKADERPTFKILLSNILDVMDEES

IC50 | SMILES
< 100 nM | Nc1ncnc2c1c(-c1ccc(Oc3ccccc3)cc1)nn2[C@@H]1CCN(C(=O)/C=C/CNC2CC2)C1 [Example 3a, (R,E)-1-(3-(4-amino-3-(4-phenoxyphenyl)-1H-pyrazolo[3,4-d]pyrimidin-1-yl)pyrrolidin-1-yl)-4-(cyclopropylamino)but-2-en-1-one]
< 100 nM | Nc1ncnc2c1c(-c1ccc(Oc3ccccc3)cc1)nn2[C@@H]1CCN(C(=O)/C=C/CN[C@@H]2CCOC2)C1 [Example 2c, (E)-1-((R)-3-(4-amino-3-(4-phenoxyphenyl)-1H-pyrazolo[3,4-d]pyrimidin-1-yl)pyrrolidin-1-yl)-4-((R)-tetrahydrofuran-3-ylamino)but-2-en-1-one]
< 100 nM | CN(C/C=C/C(=O)N1CCC[C@@H](n2nc(-c3ccc(Oc4ccccc4)cc3)c3c(N)ncnc32)C1)[C@H]1CCOC1 [Example 2j, (E)-1-((R)-3-(4-amino-3-(4-phenoxyphenyl)-1H-pyrazolo[3,4-d]pyrimidin-1-yl)piperidin-1-yl)-4-(methyl((S)-tetrahydrofuran-3-yl)amino)but-2-en-1-one]
< 100 nM | CN(C/C=C/C(=O)N1CC[C@@H](n2nc(-c3ccc(Oc4ccccc4)cc3)c3c(N)ncnc32)C1)C1CCCCC1 [Example 2w, (R,E)-1-(3-(4-amino-3-(4-phenoxyphenyl)-1H-pyrazolo[3,4-d]pyrimidin-1-yl)pyrrolidin-1-yl)-4-(cyclohexyl(methyl)amino)but-2-en-1-one]
< 100 nM | CN1CCC(NC/C=C/C(=O)N2CC[C@@H](n3nc(-c4ccc(Oc5ccccc5)cc4)c4c(N)ncnc43)C2)CC1 [Example 2ad, (R,E)-1-(3-(4-amino-3-(4-phenoxyphenyl)-1H-pyrazolo[3,4-d]pyrimidin-1-yl)pyrrolidin-1-yl)-4-(1-methylpiperidin-4-ylamino)but-2-en-1-one]
< 100 nM | CN1CCC(NC/C=C/C(=O)N2CCC[C@@H](n3nc(-c4ccc(Oc5ccccc5)cc4)c4c(N)ncnc43)C2)CC1 [Example 2ao, (R,E)-1-(3-(4-amino-3-(4-phenoxyphenyl)-1H-pyrazolo[3,4-d]pyrimidin-1-yl)piperidin-1-yl)-4-(1-methylpiperidin-4-ylamino)but-2-en-1-one]
< 100 nM | CN(C(=O)/C=C/CN(C)C1CCC1)c1ccc(-n2nc(-c3ccc(Oc4ccccc4)cc3)c3c(N)ncnc32)cc1 [Example 7c, (E)-N-(4-(4-amino-3-(4-phenoxyphenyl)-1H-pyrazolo[3,4-d]pyrimidin-1-yl)phenyl)-4-(cyclobutyl(methyl)amino)-N-methylbut-2-enamide]
< 100 nM | CN(C(=O)/C=C/CN(C)C1CC1)c1cccc(-n2cc(-c3ccc(Oc4ccccc4)cc3)c3c(N)ncnc32)c1 [Example 8a]
< 100 nM | CN(C/C=C/C(=O)N1CC[C@@H](n2nc(-c3ccc(Oc4cccc(F)c4)cc3)c3c(N)ncnc32)C1)C1CC1 [Example 4c, (R,E)-1-(3-(4-amino-3-(4-(3-fluorophenoxy)phenyl)-1H-pyrazolo[3,4-d]pyrimidin-1-yl)pyrrolidin-1-yl)-4-(cyclopropyl(methyl)amino)but-2-en-1-one]
< 100 nM | Nc1ncnc2c1c(-c1ccc(Oc3ccccc3)cc1)nn2[C@@H]1CCCN(C(=O)/C=C/CNC2COC2)C1 [Example 2n, (R,E)-1-(3-(4-amino-3-(4-phenoxyphenyl)-1H-pyrazolo[3,4-d]pyrimidin-1-yl)piperidin-1-yl)-4-(oxetan-3-ylamino)but-2-en-1-one]
< 100 nM | CN(C/C=C/C(=O)N1CC[C@@H](n2nc(-c3ccc(Oc4cccc(F)c4)cc3)c3c(N)ncnc32)C1)C1CCC1 [Example 4b, (R,E)-1-(3-(4-amino-3-(4-(3-fluorophenoxy)phenyl)-1H-pyrazolo[3,4-d]pyrimidin-1-yl)pyrrolidin-1-yl)-4-(cyclobutyl(methyl)amino)but-2-en-1-one]
< 100 nM | CN(C/C=C/C(=O)N1CC(n2nc(-c3ccc(Oc4ccccc4)cc3)c3c(N)ncnc32)C1)C1CC1 [Example 5c, (E)-1-(3-(4-amino-3-(4-phenoxyphenyl)-1H-pyrazolo[3,4-d]pyrimidin-1-yl)azetidin-1-yl)-4-(cyclopropyl(methyl)amino)but-2-en-1-one]
< 100 nM | Nc1ncnc2c1c(-c1ccc(Oc3ccccc3)cc1)nn2[C@@H]1CCCN(C(=O)/C=C/CNc2ccccn2)C1 [Example 1u, (R,E)-1-(3-(4-amino-3-(4-phenoxyphenyl)-1H-pyrazolo[3,4-d]pyrimidin-1-yl)piperidin-1-yl)-4-(pyridin-2-ylamino)but-2-en-1-one]
< 100 nM | CN(C/C=C/C(=O)N1CCC[C@@H](n2nc(-c3ccc(Oc4ccccc4)cc3)c3c(N)ncnc32)C1)c1ccccn1 [Example 1t, (R,E)-1-(3-(4-amino-3-(4-phenoxyphenyl)-1H-pyrazolo[3,4-d]pyrimidin-1-yl)piperidin-1-yl)-4-(methyl(pyridin-2-yl)amino)but-2-en-1-one]
< 100 nM | COCCN(C/C=C/C(=O)N1CCC[C@@H](n2nc(-c3ccc(Oc4ccccc4)cc3)c3c(N)ncnc32)C1)C1CC1 [Example 2s, (R,E)-1-(3-(4-amino-3-(4-phenoxyphenyl)-1H-pyrazolo[3,4-d]pyrimidin-1-yl)piperidin-1-yl)-4-(cyclopropyl(2-methoxyethyl)amino)but-2-en-1-one]
< 100 nM | CN(C/C=C/C(=O)N1CC[C@@H](n2nc(-c3ccc(Oc4ccccc4)cc3)c3c(N)ncnc32)C1)C1CCC1 [Example 2aa, (R,E)-1-(3-(4-amino-3-(4-phenoxyphenyl)-1H-pyrazolo[3,4-d]pyrimidin-1-yl)pyrrolidin-1-yl)-4-(cyclobutyl(methyl)amino)but-2-en-1-one]
< 100 nM | CN(C/C=C/C(=O)N1CCC[C@@H](n2nc(-c3ccc(Oc4ccccc4)cc3)c3c(N)ncnc32)C1)C1COC1 [Example 2m, (R,E)-1-(3-(4-amino-3-(4-phenoxyphenyl)-1H-pyrazolo[3,4-d]pyrimidin-1-yl)piperidin-1-yl)-4-(methyl(oxetan-3-yl)amino)but-2-en-1-one]
< 100 nM | CN1CCC(N(C)C/C=C/C(=O)N2CCC[C@@H](n3nc(-c4ccc(Oc5ccccc5)cc4)c4c(N)ncnc43)C2)CC1 [Example 2an, (R,E)-1-(3-(4-amino-3-(4-phenoxyphenyl)-1H-pyrazolo[3,4-d]pyrimidin-1-yl)piperidin-1-yl)-4-(methyl(1-methylpiperidin-4-yl)amino)but-2-en-1-one]
< 100 nM | Nc1ncnc2c1c(-c1ccc(Oc3ccccc3)cc1)nn2[C@@H]1CCCN(C(=O)/C=C/CN[C@@H]2CCOC2)C1 [Example 2i, (E)-1-((R)-3-(4-amino-3-(4-phenoxyphenyl)-1H-pyrazolo[3,4-d]pyrimidin-1-yl)piperidin-1-yl)-4-((R)-tetrahydrofuran-3-ylamino)but-2-en-1-one]
< 100 nM | CN(C/C=C/C(=O)N1CCC[C@@H](n2nc(-c3ccc(Oc4ccccc4)cc3)c3c(N)ncnc32)C1)C1CC1 [Example 2ae, (R,E)-1-(3-(4-amino-3-(4-phenoxyphenyl)-1H-pyrazolo[3,4-d]pyrimidin-1-yl)piperidin-1-yl)-4-(cyclopropyl(methyl)amino)but-2-en-1-one]
< 100 nM | Nc1ncnc2c1c(-c1ccc(Oc3ccccc3)cc1)nn2[C@@H]1CCCN(C(=O)/C=C/CNC2CCCC2)C1 [Example 2aj, (R,E)-1-(3-(4-amino-3-(4-phenoxyphenyl)-1H-pyrazolo[3,4-d]pyrimidin-1-yl)piperidin-1-yl)-4-(cyclopentylamino)but-2-en-1-one]

Reference: US9138436B2, “Inhibitors of Bruton's tyrosine kinase” (PHARMACYCLICS LLC, priority 2011, dated 2015)
